Source: patent publication US20250011300A1, “PIPERAZINYLSULFONYLARYL COMPOUNDS FOR TREATMENT OF BACTERIAL INFECTIONS” (Hoffmann-La Roche Inc., priority 2021, published 2025)
In brackets after ≈: the same amount, converted by molar mass.

How the values were obtained:
[1] = target: Escherichia coli LpxH (UDP-2,3-diacylglucosamine hydrolase) (Escherichia coli (strain K12), UniProt P43341); experiment: 50% Inhibitory Concentration (IC50) to LpxH, UMP/CMP-Glo Glycosyltransferase Assay kit; assay type: biochemical
Sequence of Escherichia coli LpxH (UDP-2,3-diacylglucosamine hydrolase) (P43341 whole entry): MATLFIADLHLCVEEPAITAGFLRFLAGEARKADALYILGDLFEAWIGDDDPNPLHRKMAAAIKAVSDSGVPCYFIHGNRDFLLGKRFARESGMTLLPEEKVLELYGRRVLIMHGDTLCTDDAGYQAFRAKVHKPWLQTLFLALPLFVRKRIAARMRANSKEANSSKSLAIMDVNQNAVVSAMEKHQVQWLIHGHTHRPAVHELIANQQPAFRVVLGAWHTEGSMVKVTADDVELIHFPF
In short: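 LpxH hydrolysis of UDP-2,3-diacylglucosamine to lipid X and UMP; UMP produced is converted to ATP and quantified by luciferase luminescence (UMP/CMP-Glo). Inhibition taken from reduced light output.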

E. coli (ATCC 25922) = experiment: Minimal Inhibitory Concentration (MIC) assay, E. coli; assay type: cell-based; details: Escherichia coli, ATCC25922; E. coli ATCC 25922, CAMHB, 20 hours at 35° C.; read-out: MIC E. coli ATCC 25922
In short: (§1)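 Broth microdilution in cation-adjusted Mueller Hinton broth, inoculum 5×10^5 CFU/mL, compounds 2-fold serially diluted from 10 mM DMSO stocks. Plates incubated 20 hours at 35° C in ambient air; MIC (μg/mL) is the lowest concentration preventing visible growth.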

[2] = tested on: K. pneumonia (ATCC 43816); experiment: Minimal Inhibitory Concentration (MIC) assay, K. pneumonia; assay type: cell-based; details: Klebsiella pneumoniae; K. pneumoniae ATCC43816, CAMHB, 20 hours at 35° C.; read-out: MIC K. pneumoniae ATCC43816
In short: as §1

NC1CC(=O)N(c2ccc(S(=O)(=O)N3CCN(c4cc(C(F)(F)C5CCOCC5)cc(Cl)n4)CC3)cc2)C1 (stereo not drawn) [Example 95, 4-Amino-1-[4-[4-[6-chloro-4-[difluoro(tetrahydropyran-4-yl)methyl]-2-pyridyl]piperazin-1-yl]sulfonylphenyl]pyrrolidin-2-one]
IC50 [1]: 57.9 nM | MIC (E. coli (ATCC 25922)): 0.89 µg/mL (≈ 1.56 µM) | MIC [2]: 0.89 µg/mL (≈ 1.56 µM)

NCC1CN(c2ccc(S(=O)(=O)N3CCN(c4cc(C(F)(F)F)cc(Cl)n4)CC3)cc2)C(=O)O1 (stereo not drawn) [Example 3, 5-(Aminomethyl)-3-[4-[4-[6-chloro-4-(trifluoromethyl)-2-pyridyl]piperazin-1-yl]sulfonylphenyl]oxazolidin-2-one]
IC50 [1]: 460 nM | MIC (E. coli (ATCC 25922)): 3.96 µg/mL (≈ 7.62 µM) | MIC [2]: 1.98 µg/mL (≈ 3.81 µM)

O=C1CC(CNCC2CNC2)CN1c1ccc(S(=O)(=O)N2CCN(c3cc(C(F)(F)F)cc(Cl)n3)CC2)cc1 (stereo not drawn) [Example 38, 4-[(Azetidin-3-ylmethylamino)methyl]-1-[4-[4-[6-chloro-4-(trifluoromethyl)-2-pyridyl]piperazin-1-yl]sulfonylphenyl]pyrrolidin-2-one]
IC50 [1]: 47.7 nM | MIC (E. coli (ATCC 25922)): 5.09 µg/mL (≈ 8.67 µM) | MIC [2]: 5.09 µg/mL (≈ 8.67 µM)

O=C1O[C@H]2CCNC[C@H]2N1c1ccc(S(=O)(=O)N2CCN(c3cc(C(F)(F)c4ccccc4)cc(Cl)n3)CC2)cc1 [Example 87, (3aR,7aS)-3-[4-[4-[6-chloro-4-[difluoro(phenyl)methyl]-2-pyridyl]piperazin-1-yl]sulfonylphenyl]-3a,4,5,6,7,7a-hexahydrooxazolo[4,5-c]pyridin-2-one]
IC50 [1]: 11.6 nM | MIC (E. coli (ATCC 25922)): 0.55 µg/mL (≈ 0.91 µM) | MIC [2]: 1.09 µg/mL (≈ 1.8 µM)

NCC1CC(=O)N(c2ccc(S(=O)(=O)N3CCN(c4cc(C(F)(F)F)cc(Cl)n4)CC3)cc2)C1 (stereo not drawn) [Example 2, 4-(Aminomethyl)-1-[4-[4-[6-chloro-4-(trifluoromethyl)-2-pyridyl]piperazin-1-yl]sulfonyl-phenyl]pyrrolidin-2-one]
IC50 [1]: 84.9 nM | MIC (E. coli (ATCC 25922)): 1.98 µg/mL (≈ 3.82 µM) | MIC [2]: 3.95 µg/mL (≈ 7.63 µM)

O=C1CC2(CCNCC2)CN1c1ccc(S(=O)(=O)N2CCN(c3cc(C(F)(F)F)cc(Cl)n3)CC2)cc1 [Example 11, 2-[4-[4-[6-Chloro-4-(trifluoromethyl)-2-pyridyl]piperazin-1-yl]sulfonylphenyl]-2,8-diazaspiro[4.5]decan-3-one]
IC50 [1]: 23.3 nM | MIC (E. coli (ATCC 25922)): 2.1 µg/mL (≈ 3.76 µM) | MIC [2]: 4.2 µg/mL (≈ 7.53 µM)

CN(C)CC1CN(c2ccc(S(=O)(=O)N3CCN(c4cc(C(F)(F)F)cc(Cl)n4)CC3)cc2)C(=O)O1 (stereo not drawn) [Example 28, 3-[4-[4-[6-Chloro-4-(trifluoromethyl)-2-pyridyl]piperazin-1-yl]sulfonylphenyl]-5-[(dimethylamino)methyl]oxazolidin-2-one]
IC50 [1]: 12.8 nM | MIC (E. coli (ATCC 25922)): 1.83 µg/mL (≈ 3.34 µM) | MIC [2]: 1.83 µg/mL (≈ 3.34 µM)

NCCC1CN(c2ccc(S(=O)(=O)N3CCN(c4cc(C(F)(F)F)cc(Cl)n4)CC3)cc2)C(=O)O1 (stereo not drawn) [Example 9, 5-(2-Aminoethyl)-3-[4-[4-[6-chloro-4-(trifluoromethyl)-2-pyridyl]piperazin-1-yl]sulfonylphenyl]oxazolidin-2-one]
IC50 [1]: 24.3 nM | MIC (E. coli (ATCC 25922)): 1.78 µg/mL (≈ 3.33 µM) | MIC [2]: 3.57 µg/mL (≈ 6.69 µM)

NC1CC(=O)N(c2ccc(S(=O)(=O)N3CCN(c4cc(C(F)(F)C5=CCOCC5)cc(Cl)n4)CC3)cc2)C1 (stereo not drawn) [Example 98, 4-Amino-1-[4-[4-[6-chloro-4-[3,6-dihydro-2H-pyran-4-yl(difluoro)methyl]-2-pyridyl]piperazin-1-yl]sulfonylphenyl]pyrrolidin-2-one]
IC50 [1]: 47.5 nM | MIC (E. coli (ATCC 25922)): 0.89 µg/mL (≈ 1.57 µM) | MIC [2]: 0.89 µg/mL (≈ 1.57 µM)
